# Measurements published in ChEMBL document CHEMBL1201862, “PubChem BioAssay data set” (2004).
#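 Growth conditions: 96-well plates. Treatment: test compound, 48 hours, 5 concentrations. Analysis: linear interpolation between bracketing concentrations; unreached endpoints set to highest concentration. At the GI50, growth is halved.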 Calls of active or inactive are those of the source. Cut-off read from the data, not from the text of the source: active = GI50 up to about 1.1 µM and inactive = higher.
# Experiments:
# Assay in all cases: NCI tumour cell line growth inhibition, 48 h
# [1] = test system: OVCAR-3
# [2] = test system: OVCAR-4
# [3] = test system: RXF 631
# [4] = test system: KM12
# [5] = test system: UO-31
# [6] = test system: HT-29
# [7] = test system: HOP-62
# [8] = test system: SNB-78
# [9] = test system: RPMI-8226
# [10] = test system: SW-620
# [11] = test system: HCC 2998
# [12] = test system: OVCAR-8
# [13] = test system: SN12C
# [14] = test system: XF498
# [15] = test system: SF-539
# [16] = test system: EKVX
# [17] = test system: MOLT-4
# [18] = test system: M14
# [19] = test system: RXF 393
# [20] = test system: Malme-3M
# [21] = test system: CCRF-CEM
# [22] = test system: U-251
# [23] = test system: HCT-15
# [24] = test system: HOP-18
# [25] = test system: LXFL 529
# [26] = test system: A549
# [27] = test system: SR
# [28] = test system: OVCAR-5
# [29] = test system: DMS-114
# [30] = test system: HCT-116
# [31] = test system: SNB-19
# [32] = test system: K562
# [33] = test system: CAKI-1
# [34] = test system: ACHN
# [35] = test system: HL-60
# [36] = test system: LOX IMVI
# [37] = test system: NCI-H460
# [38] = test system: COLO 205
# [39] = test system: SF-268
# [40] = test system: SF-295
# [41] = test system: HOP-92
# [42] = test system: KM-20L2
# [43] = test system: NCI-H23
# [44] = test system: DMS-273
# [45] = test system: NCI-H226
# [46] = test system: 786-0
# [47] = test system: SNB-75
# [48] = test system: IGROV-1
# [49] = test system: UACC-62
# [50] = test system: UACC-257
# [51] = test system: SK-MEL-5
# [52] = test system: SK-OV-3
# [53] = test system: NCI-H522
# [54] = test system: M19-MEL
# [55] = test system: DLD-1
# [56] = test system: A498
# [57] = test system: TK-10
# [58] = test system: SK-MEL-28
compound,measurement,setting,value
c1ccc([S+](c2ccccc2)c2ccc(Sc3ccc([S+](c4ccccc4)c4ccccc4)cc3)cc2)cc1,GI50,[1],10.2 µM (inactive)
same,GI50,[2],20.6 µM (inactive)
same,GI50,[3],58.2 µM (inactive)
same,GI50,[4],21.3 µM (inactive)
same,GI50,[5],60 µM (inactive)
same,GI50,[6],18.2 µM (inactive)
same,GI50,[7],39.7 µM (inactive)
same,GI50,[8],27.9 µM (inactive)
same,GI50,[9],4.88 µM (inactive)
same,GI50,[10],37.9 µM (inactive)
same,GI50,[11],20.2 µM (inactive)
same,GI50,[12],20.3 µM (inactive)
same,GI50,[13],17.9 µM (inactive)
same,GI50,[14],11.4 µM (inactive)
same,GI50,[15],31.3 µM (inactive)
same,GI50,[16],73.6 µM (inactive)
same,GI50,[17],9.73 µM (inactive)
same,GI50,[18],45.5 µM (inactive)
same,GI50,[19],19.7 µM (inactive)
same,GI50,[20],32.6 µM (inactive)
same,GI50,[21],19.4 µM (inactive)
same,GI50,[22],15.7 µM (inactive)
same,GI50,[23],> 100 µM
same,GI50,[24],30.5 µM (inactive)
same,GI50,[25],18 µM (inactive)
same,GI50,[26],9.79 µM (inactive)
same,GI50,[27],6.44 µM (inactive)
same,GI50,[28],12.3 µM (inactive)
same,GI50,[29],3.2 µM (inactive)
same,GI50,[30],21.8 µM (inactive)
same,GI50,[31],7.64 µM (inactive)
same,GI50,[32],1.17 µM (inactive)
same,GI50,[33],75.5 µM (inactive)
same,GI50,[34],26.4 µM (inactive)
same,GI50,[35],2.58 µM (inactive)
same,GI50,[36],18.6 µM (inactive)
same,GI50,[37],29.6 µM (inactive)
same,GI50,[38],17.4 µM (inactive)
same,GI50,[39],22.3 µM (inactive)
same,GI50,[40],25.8 µM (inactive)
same,GI50,[41],27.6 µM (inactive)
same,GI50,[42],16.8 µM (inactive)
same,GI50,[43],3.06 µM (inactive)
same,GI50,[44],19.5 µM (inactive)
same,GI50,[45],25.5 µM (inactive)
same,GI50,[46],43.8 µM (inactive)
same,GI50,[47],19.2 µM (inactive)
same,GI50,[48],43.2 µM (inactive)
same,GI50,[49],24 µM (inactive)
same,GI50,[50],12.5 µM (inactive)
same,GI50,[51],5.81 µM (inactive)
same,GI50,[52],21.9 µM (inactive)
same,GI50,[53],12 µM (inactive)
same,GI50,[54],18.1 µM (inactive)
same,GI50,[55],29.2 µM (inactive)
same,GI50,[56],44.4 µM (inactive)
same,GI50,[57],36.2 µM (inactive)
same,GI50,[58],34.7 µM (inactive)
